Laboratory results as given in ChEMBL document CHEMBL3400025, “Synthesis, structural analysis and antitumor activity of novel 17α-picolyl and 17(E)-picolinylidene A-modified androstane derivatives” (Bioorg Med Chem, 2015).

How the values were obtained:
MDA-MB-231 = assay: Antiproliferative activity against ER negative human MDA-MB-231 cells assessed as inhibition of cell growth after 48 hrs by MTT assay; format: functional, cell-based; conditions: MDA-MB-231, 48 h
MCF7 [1] = assay: Antiproliferative activity against ER positive human MCF7 cells assessed as inhibition of cell growth after 48 hrs by MTT assay; format: functional, cell-based; conditions: MCF7, 48 h
[2] = Antiproliferative activity against human PC3 cells assessed as inhibition of cell growth after 48 hrs by MTT assay; format: functional, cell-based; conditions: PC-3, 48 h
HeLa = assay: Antiproliferative activity against human HeLa cells assessed as inhibition of cell growth after 48 hrs by MTT assay; format: functional, cell-based
A549 = assay: Antiproliferative activity against human A549 cells assessed as inhibition of cell growth after 48 hrs by MTT assay; format: functional, cell-based; conditions: A549, 48 h
HT-29 = assay: Antiproliferative activity against human HT-29 cells assessed as inhibition of cell growth after 48 hrs by MTT assay; format: functional, cell-based; conditions: HT-29, 48 h
MRC5 = assay: Antiproliferative activity against human MRC5 cells assessed as inhibition of cell growth after 48 hrs by MTT assay; format: functional, cell-based; conditions: MRC5, 48 h
MCF7 [3] = assay: Cell cycle arrest in human MCF7 cells assessed as cells accumulation at G0/G1 phase at IC50 concentration after 48 hrs by flow cytometry (reference value: 47.55%); format: functional
MCF7 [4] = assay: Cell cycle arrest in human MCF7 cells assessed as cells accumulation at S phase at IC50 concentration after 48 hrs by flow cytometry (reference value: 29.30%); format: functional
MCF7 [5] = assay: Cell cycle arrest in human MCF7 cells assessed as cells accumulation at G2/M phase at IC50 concentration after 48 hrs by flow cytometry (Rvb =21.32 %); format: functional
MCF7 [6] = assay: Cell cycle arrest in human MCF7 cells assessed as cells accumulation at subG1 phase at IC50 concentration after 48 hrs by flow cytometry (Rvb =1.83 %); format: functional
MCF7 [7] = assay: Induction of apoptosis in human MCF7 cells assessed as apoptotic morphological changes at IC50 concentration after 48 hrs by light microscopy; format: functional

Row | Compound | IC50 (MDA-MB-231) [µM] | IC50 (MCF7 [1]) [µM] | IC50 [2] [µM] | IC50 (HeLa) [µM] | IC50 (A549) [µM] | IC50 (HT-29) [µM] | IC50 (MRC5) [µM] | Activity (MCF7 [3]) [%] | Activity (MCF7 [4]) [%] | Activity (MCF7 [5]) [%] | Activity (MCF7 [6]) [%] | Activity (MCF7 [7]) [%]
1 | C[C@]12CC[C@H](O)CC1=CC[C@@H]1[C@@H]2CC[C@@]2(C)[C@H]1CC[C@@]2(O)Cc1ccccn1 | > 100 | 96.1 | 6.3 | 75.2 | > 100 | 48.2 | > 100 | – | – | – | – | –
2 | C[C@]12CC[C@H](O)CC1=CC[C@@H]1[C@@H]2CC[C@]2(C)/C(=C/c3ccccn3)CC[C@@H]12 | > 100 | > 100 | > 100 | > 100 | > 100 | > 100 | > 100 | – | – | – | – | –
3 | C[C@]12CCC(=O)C=C1CC[C@@H]1[C@@H]2CC[C@]2(C)/C(=C/c3ccccn3)CC[C@@H]12 | > 100 | > 100 | – | > 100 | > 100 | > 100 | > 100 | – | – | – | – | –
4 | C[C@]12CCC(=O)C=C1CC[C@@H]1[C@@H]2CC[C@@]2(C)[C@H]1CC[C@@]2(O)Cc1ccccn1 | > 100 | > 100 | > 100 | 57.8 | 57.5 | > 100 | > 100 | – | – | – | – | –
5 | C[C@]12CCNC(=O)C=C1CC[C@@H]1[C@@H]2CC[C@]2(C)/C(=C/c3ccccn3)CC[C@@H]12 | 12.7 | 32.2 | 60.1 | > 100 | 19.8 | > 100 | > 100 | – | – | – | – | –
6 | C[C@]12C/C(=C/O)C(=O)C=C1CC[C@@H]1[C@@H]2CC[C@]2(C)/C(=C/c3ccccn3)CC[C@@H]12 | > 100 | > 100 | > 100 | > 100 | > 100 | > 100 | > 100 | – | – | – | – | –
7 | C[C@]12C/C(=C/O)C(=O)C=C1CC[C@@H]1[C@@H]2CC[C@@]2(C)[C@H]1CC[C@@]2(O)Cc1ccccn1 | 19 | 34.4 | > 100 | > 100 | > 100 | > 100 | > 100 | – | – | – | – | –
8 | C[C@]12C/C(=N/O)C(=O)C=C1CC[C@@H]1[C@@H]2CC[C@@]2(C)[C@H]1CC[C@@]2(O)Cc1ccccn1 | > 100 | 51.3 | > 100 | > 100 | > 100 | > 100 | > 100 | – | – | – | – | –
9 | C[C@]12C/C(=N\O)C(=O)c3noc(c31)C[C@@H]1[C@@H]2CC[C@@]2(C)[C@H]1CC[C@@]2(O)Cc1ccccn1 | 50.4 | 25.3 | 6.6 | > 100 | > 100 | > 100 | > 100 | – | – | – | – | –
10 | C[C@]12C/C(=N/O)C(=O)/C(=N\O)C1=CC[C@@H]1[C@@H]2CC[C@@]2(C)[C@H]1CC[C@@]2(O)Cc1ccccn1 | 1.7 | 40.1 | 8.7 | 81.8 | 10.3 | 56 | > 100 | 47.66 | 29.03 | 21.23 | 2.08 | 12.2
11 | C[C@]1(CC#N)C(C#N)=CC[C@@H]2[C@@H]1CC[C@@]1(C)[C@H]2CC[C@@]1(O)Cc1ccccn1 | 7.9 | 18.2 | 31.5 | > 100 | > 100 | 71.8 | > 100 | 46.06 | 31.34 | 21.12 | 1.48 | –
12 | COc1cccc2c1C(=O)c1c(O)c3c(c(O)c1C2=O)C[C@@](O)(C(=O)CO)C[C@@H]3O[C@H]1C[C@H](N)[C@H](O)[C@H](C)O1 [DOXORUBICIN] | 0.75 | 0.12 | – | – | 0.32 | 7.86 | – | – | – | – | – | –
13 | C[C@]12CCC(=O)C(O)=C1CC[C@@H]1[C@@H]2CC[C@]2(C)C(=O)CC[C@@H]12 [FORMESTANE] | > 100 | 55.5 | 48.4 | – | > 100 | > 100 | > 100 | 54.8 | 19.48 | 24.54 | 1.18 | 11.5
